The subject of this assay is keloid scar. Briefly: Intralesional injection of the pharmaceutical composition into keloid scars of patients. The assay is classed as in vivo, human. The conditions noted are these: injected into the keloid scar; general statement, 'often'. Here is the method: A pharmaceutical composition was prepared by mixing 1.0 mg of high molecular weight hyaluronic acid (0.1 cc of HYALGAN®, sodium hyaluronate) with 7.5 units of hyaluronidase (HYLENEX® recombinant human hyaluronidase), which was injected into the keloid scar. […] Erythema and tenderness of the keloid scar was also resolved.
A pharmaceutical composition was prepared as in Example 1, and injected into the keloid scar.
The patient also reported a sharp, piercing pain from the keloid scar. A pharmaceutical composition was prepared as in Example 1, and injected into the keloid scar.
A fourth patient had two keloid scars, one on each earlobe. A pharmaceutical composition was prepared as in Example 1, and injected into each of the keloid scars. […] Some itching was reported by the patient.
All four patients responded to the treatment. Overall, there was significant reduction in keloid scar size, with an average of approximately a 22% reduction in length, a 37% reduction in width, and a 45% reduction in height. Even more striking was great reduction in density and hardness of the keloid scar tissue, leaving a soft pliable skin sack after treatment.
Only a few mild adverse reactions were reported. Two patients reported very mild itching from the keloid scars. Some stinging from the injection was also reported. No significant pain or swelling was reported.

From patent US20140328826A1, “PRODUCT AND METHOD FOR TREATING KELOID SCARS, HYPERTROPHIC SCARS AND BURN SCARS WITH CONTRACTURE” (COLE Research & Design, Inc., priority 2013, published 2014) come the findings set out here.

Regarding low molecular weight hyaluronic acid, the “shrinkage of keloid scar volume” value was at least 50%.
